The source of these data is patent publication US20100278751A1, “RADIOLABELED 2-AMINO-4-ALKYL-6-(HALOALKYL)PYRIDINE COMPOUNDS AND THEIR USE IN DIAGNOSTIC IMAGING” (WASHINGTON UNIVERSITY, priority 2009, published 2010).

Where two headings read alike, the source gives them in different places.

Series [1] has as its target T1, iNOS (Homo sapiens, UniProt P35228). Put plainly: iNOS activity, nitric oxide synthase screening kit (IC50). In kind it is biochemical.
Method: The IC50 for inhibiting iNOS was determined for various compounds, as shown in FIG. 3 and FIG. 4 In these experiments, IC50 determinations for a compound was made by measuring iNOS activity in the presence of a compound at multiple concentrations. iNOS activity was measured by assays using the nitric oxide synthase screening kit (GE Healthcare Biosciences Corp., Piscataway, N.J.) following the manufacturer's protocols.
Series [2] is described as follows: In vitro stability in heparinized rat whole blood. In kind it is in vitro ADME, Sprague-Dawley rat. Conditions: 37° C. The method, then:
The in vitro stability of [^18F]compound 14 was tested by using heparinized blood from an adult male Sprague-Dawley rat. [^18F]compound 14 was relatively stable in the whole blood for 2 h at 37° C. At 1 h, approximately 80% of the activity recovered from lysed whole blood was observed as [^18F]compound 14, and at 2 h, approximately 75% of the recovered activity was still in the form of [^18F]compound 14.

Series [3] deals with T2, iNOS (Mus musculus, UniProt P29477).
T2 construct: from tissue
Put plainly: microPET imaging study in LPS-treated and control mice. In kind it is in vivo. The note with it: LPS intratracheally treated mouse vs control mouse. The method, then:
Two mice, one intratracheally treated with LPS, and a control mouse, were injected with [^18F]compound 14. […] This difference in tracer accumulation is consistent with the difference in accumulation of iNOS described between LPS-treated and control mice in the preceeding examples.

The nature of series [4]: In vivo stability (percent parent compound in plasma/blood) in rats. More on the design: species or system Sprague-Dawley rats. The protocol:
Adult male Sprague-Dawley rats were injected with [^18F]compound 14, and at 5 and 30 minutes post injection, plasma samples were obtained. Supernatants from the plasma samples were analyzed by silica gel radio-TLC and reversed phase HPLC. After 30 minutes, the percent parent compound was only 20.2%. Additionally, within 5 minutes post injection, only 40.3% of the activity in the blood was [^18F]compound 14, which was confirmed by HPLC co-elution with non-radioactive compound 14. According to the HPLC analysis, the major metabolite, constituting 50% of the activity in blood at 5 minutes post injection, was very polar but was not free [^18F] fluoride. This observation is also consistent with the low bone uptake reported in biodistribution studies.

Series [5] can be described thus: Biodistribution in control vs. LPS treated mice. In kind it is in vivo, C57BL/6 mice. The protocol:
This example describes the results of in vivo studies on the biodistribution of iNOS inhibitors. The biodistribution studies were performed in mature male C57BL/6 mice. One group of mice was treated with bacterial lipopolysaccharide (LPS) (10 mg/kg, administered intravenously) to induce iNOS expression, and a control group was left untreated.

Series [6] deals with T1, iNOS. Conditions: cited from earlier work.
Another series addresses nNOS (Homo sapiens, UniProt P29475). Kind of series: nNOS selectivity, nitric oxide synthase screening kit (IC50). In kind it is biochemical. The protocol: (§1) All assays were performed using the nitric oxide synthase screening kit (GE Healthcare Biosciences Corp., Piscataway, N.J.) following the manufacturer's protocols.
The target of the next series is eNOS (Homo sapiens, UniProt P29474). Put plainly: eNOS selectivity, nitric oxide synthase screening kit (IC50). In kind it is biochemical. The method, then: as §1
The target in series [7] is T2, iNOS. Kind of series: Blocking studies of tracer uptake in LPS-treated mice. In kind it is in vivo. The method, then: This example describes blocking studies. […] P., et al., J. Biol. Chem. 272: 4959-4963, 1997). […] At 1 h post injection, % ID in lung was determined.
The mark [8] stands for this setting: iNOS, read-out: IC50 of tested compounds.
[9] abbreviates: iNOS, read-out: IC50 (standards for measuring IC50).
[10] abbreviates: measured against SEITU, L-NIL and 2-AP as standards, read-out: IC50 for iNOS.
The mark [11] stands for this setting: read-out: Selectivity (IC50) iNOS.

T1 sequence (P35228 whole entry): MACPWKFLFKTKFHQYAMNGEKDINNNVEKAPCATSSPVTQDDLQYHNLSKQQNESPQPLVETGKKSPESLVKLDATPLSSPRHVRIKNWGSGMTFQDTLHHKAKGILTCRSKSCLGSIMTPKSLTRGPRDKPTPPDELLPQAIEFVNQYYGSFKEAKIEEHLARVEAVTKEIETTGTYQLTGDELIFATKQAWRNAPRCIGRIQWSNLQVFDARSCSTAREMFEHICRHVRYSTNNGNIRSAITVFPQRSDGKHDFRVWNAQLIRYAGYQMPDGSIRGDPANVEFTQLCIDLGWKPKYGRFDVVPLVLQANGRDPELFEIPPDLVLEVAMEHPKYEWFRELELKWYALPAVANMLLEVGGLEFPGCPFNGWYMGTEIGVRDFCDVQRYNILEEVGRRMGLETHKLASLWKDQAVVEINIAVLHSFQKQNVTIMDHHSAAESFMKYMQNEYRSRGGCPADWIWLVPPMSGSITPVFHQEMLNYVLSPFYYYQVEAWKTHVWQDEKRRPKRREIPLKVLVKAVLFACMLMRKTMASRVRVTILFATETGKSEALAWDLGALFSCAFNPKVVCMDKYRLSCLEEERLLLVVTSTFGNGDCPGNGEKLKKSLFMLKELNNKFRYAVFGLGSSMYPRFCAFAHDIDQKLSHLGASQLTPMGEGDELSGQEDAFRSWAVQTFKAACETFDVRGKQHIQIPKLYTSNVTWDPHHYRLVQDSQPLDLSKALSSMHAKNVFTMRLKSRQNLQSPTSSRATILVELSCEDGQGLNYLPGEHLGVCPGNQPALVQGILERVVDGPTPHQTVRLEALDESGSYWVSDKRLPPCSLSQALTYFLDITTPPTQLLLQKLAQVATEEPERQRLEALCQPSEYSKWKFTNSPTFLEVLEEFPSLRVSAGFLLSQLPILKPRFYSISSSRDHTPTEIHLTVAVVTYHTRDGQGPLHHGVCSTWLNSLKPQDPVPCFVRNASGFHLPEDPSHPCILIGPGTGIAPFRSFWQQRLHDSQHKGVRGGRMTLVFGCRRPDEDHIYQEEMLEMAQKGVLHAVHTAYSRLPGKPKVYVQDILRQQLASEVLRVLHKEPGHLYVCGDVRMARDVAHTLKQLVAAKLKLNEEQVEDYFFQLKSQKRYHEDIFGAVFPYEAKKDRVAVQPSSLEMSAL

Turning to `Cc1cc(N)nc(CC(C)C)c1` [Compound 11], the melting point was in the range of 59 to 61 °C. The IC50 on iNOS [1] (setting [8]) was 193 ± 38 nM.

Turning to `Cc1cc(N)nc(CC(C)[18F])c1` (stereo not shown) [[^18F]compound 14], in series [2] (1 h), the “activity recovered from lysed whole blood observed as parent” value was “approximately 80%”. Also, in series [2] (2 h), the “recovered activity still in the form of parent” value is listed as “approximately 75%”. Besides, at iNOS [3], the “tracer accumulation in lungs (microPET)” value was “accumulated in the lungs of the LPS-treated mouse, but not in the control mouse”. Further, in series [4] (5 minutes post injection), the “activity in the blood that was parent compound” value came to 40.3%. Moreover, the “major (very polar) metabolite, share of the activity in blood” value in [4] (5 minutes post injection, HPLC) came out at 50%. For the same compound, the percent parent compound in [4] (plasma, 30 minutes post injection) is given as 20.2%. Moreover, the “Biodistribution Blood” value in series [5] (Control mice, 5 min) is listed as 2.37 ± 0.18 % ID/g; in series [5] (Control mice, 30 min), 1.22 ± 0.16 % ID/g; in series [5] (Control mice, 1 h), 0.31 ± 0.04 % ID/g; in [5] (Control mice, 2 h) it was 0.27 ± 0.22 % ID/g; in series [5] (LPS treated mice, 5 min), 3.69 ± 0.38 % ID/g; in [5] (LPS treated mice, 30 min) it was 2.09 ± 0.35 % ID/g. Moreover, the “Biodistribution Blood” value in series [5] (LPS treated mice, 1 h) is 0.86 ± 0.09 % ID/g; in series [5] (LPS treated mice, 2 h) it was 0.23 ± 0.05 % ID/g. Besides, the “Biodistribution Bone” value is recorded as 1.52 ± 0.36 % ID/g in series [5] (Control mice, 5 min); 2.26 ± 0.55 % ID/g in [5] (Control mice, 30 min); 2.57 ± 0.64 % ID/g in series [5] (Control mice, 1 h); 5.59 ± 4.20 % ID/g in series [5] (Control mice, 2 h); 1.59 ± 0.15 % ID/g in series [5] (LPS treated mice, 5 min); 3.70 ± 1.20 % ID/g in series [5] (LPS treated mice, 30 min). The “Biodistribution Bone” value in series [5] (LPS treated mice, 1 h) is 4.30 ± 0.90 % ID/g; in series [5] (LPS treated mice, 2 h), 3.77 ± 1.41 % ID/g. For the same compound, the “Biodistribution Brain” value in [5] (Control mice, 5 min) worked out at 1.60 ± 0.17 % ID/g; in series [5] (Control mice, 30 min), 0.28 ± 0.02 % ID/g; in series [5] (Control mice, 1 h), 0.11 ± 0.02 % ID/g; in series [5] (Control mice, 2 h), 0.07 ± 0.03 % ID/g; in series [5] (LPS treated mice, 5 min) it was 1.81 ± 0.09 % ID/g; in series [5] (LPS treated mice, 30 min), 0.52 ± 0.15 % ID/g. Further, the “Biodistribution Brain” value is on record as 0.19 ± 0.03 % ID/g in [5] (LPS treated mice, 1 h) and 0.07 ± 0.03 % ID/g in [5] (LPS treated mice, 2 h). Besides, the “Biodistribution Heart” value in series [5] (Control mice, 5 min) is 1.50 ± 0.12 % ID/g; in [5] (Control mice, 30 min) it was 0.60 ± 0.05 % ID/g; in [5] (Control mice, 1 h), 0.19 ± 0.02 % ID/g; in series [5] (Control mice, 2 h) it was 0.08 ± 0.02 % ID/g; in series [5] (LPS treated mice, 5 min), 2.03 ± 0.06 % ID/g; in series [5] (LPS treated mice, 30 min), 1.02 ± 0.16 % ID/g. Besides, the “Biodistribution Heart” value in [5] (LPS treated mice, 1 h) came to 0.41 ± 0.10 % ID/g; in [5] (LPS treated mice, 2 h), 0.12 ± 0.04 % ID/g. In addition, the “Biodistribution Kidney” value in series [5] (Control mice, 5 min) came to 20.6 ± 2.4 % ID/g; in series [5] (Control mice, 30 min) it was 7.30 ± 0.66 % ID/g; in [5] (Control mice, 1 h), 2.20 ± 0.25 % ID/g; in series [5] (Control mice, 2 h) it was 0.80 ± 0.27 % ID/g; in series [5] (LPS treated mice, 5 min) it was 26.7 ± 4.1 % ID/g; in series [5] (LPS treated mice, 30 min) it was 10.9 ± 2.8 % ID/g. The “Biodistribution Kidney” value in [5] (LPS treated mice, 1 h) was found to be 3.95 ± 0.53 % ID/g; in series [5] (LPS treated mice, 2 h) it was 0.91 ± 0.63 % ID/g. Besides, the “Biodistribution Liver” value is given as 33.2 ± 3.3 % ID/g in series [5] (Control mice, 5 min); 10.7 ± 0.3 % ID/g in [5] (Control mice, 30 min); 2.59 ± 0.49 % ID/g in series [5] (Control mice, 1 h); 0.74 ± 0.23 % ID/g in series [5] (Control mice, 2 h); 24.6 ± 3.1 % ID/g in series [5] (LPS treated mice, 5 min); 7.06 ± 0.28 % ID/g in [5] (LPS treated mice, 30 min). The “Biodistribution Liver” value in series [5] (LPS treated mice, 1 h) is 2.63 ± 0.52 % ID/g; in series [5] (LPS treated mice, 2 h), 0.42 ± 0.15 % ID/g. The “Biodistribution Lung” value in [5] (Control mice, 5 min) came to 3.33 ± 0.28 % ID/g; in series [5] (Control mice, 30 min), 1.14 ± 0.13 % ID/g; in series [5] (Control mice, 1 h), 0.31 ± 0.06 % ID/g; in series [5] (Control mice, 2 h) it was 0.15 ± 0.03 % ID/g; in series [5] (LPS treated mice, 5 min), 4.32 ± 0.32 % ID/g; in series [5] (LPS treated mice, 30 min) it was 1.84 ± 0.27 % ID/g. In addition, the “Biodistribution Lung” value in series [5] (LPS treated mice, 1 h) is 0.73 ± 0.17 % ID/g; in series [5] (LPS treated mice, 2 h), 0.18 ± 0.09 % ID/g. Also, the “Biodistribution Muscle” value in [5] (Control mice, 5 min) amounted to 1.25 ± 0.06 % ID/g; in series [5] (Control mice, 30 min), 0.71 ± 0.31 % ID/g; in [5] (Control mice, 1 h), 0.27 ± 0.18 % ID/g; in series [5] (Control mice, 2 h), 0.34 ± 0.27 % ID/g; in [5] (LPS treated mice, 5 min), 1.64 ± 0.09 % ID/g; in [5] (LPS treated mice, 30 min) it was 1.06 ± 0.40 % ID/g. Besides, the “Biodistribution Muscle” value is 0.78 ± 0.47 % ID/g in [5] (LPS treated mice, 1 h) and 0.23 ± 0.13 % ID/g in [5] (LPS treated mice, 2 h). In addition, the “tracer uptake, LPS-treated vs non-treated mice” value in [5] (LPS 10 mg/kg intravenously, Table 4 and FIG. 11) is on record as “greater uptake”.

Consider `Cc1cc(N)nc(CC(C)O)c1` (stereo not shown) [DZ(III)-77/Compound 14], for which the half-inhibitory concentration (IC50) at iNOS [1] (setting [8]) was 1780 ± 395 nM.

As to `CCSC(=N)N` [SEITU, S-ethylisothiourea, reference compound], the concentration for half-maximal inhibition (IC50) at iNOS [1] (setting [9]) came out at 30.5 ± 4.6 nM. For the same compound, the Ki at iNOS [6] (reported value) was 32 nM.

Consider `Cc1cc(N)nc(CC(C)F)c1` (stereo not shown) [Compound 14], for which the IC50 at iNOS [1] (setting [8]) is 54.3 ± 8.9 nM; on iNOS [1] (setting [10]) it was under 190 nM; on iNOS [1] (setting [11]), 54.3 ± 8.9 nM; against nNOS it was 493 ± 80.8 nM; against eNOS, 1520 ± 300 nM.

Take `Cc1cc(N)nc(CCCCF)c1` [DZ(IV)-120]: on iNOS [1] (setting [8]), the IC50 worked out at 170 ± 26.5 nM.

`CC(C)=Cc1cc(C)cc(N)n1` [Compound 25]: on iNOS [1] (setting [8]), the half-maximal inhibitory concentration (IC50) was found to be 685 ± 127 nM.

On to `Nc1ncc2[nH]cnc2n1` [Compound 2-AP, 2-aminopurine, reference compound], for which the figures for the IC50 at iNOS [1] (setting [9]) and on iNOS [6] (reported value for standards) were 108 ± 34.5 nM and 170 nM, respectively.

With `Cc1cc(N)nc(CC(C)CCF)c1` (stereo not shown) [DZ(IV)-93], the IC50 on iNOS [1] (setting [8]) was found to be 731 ± 87 nM.

`CC(=N)NCc1cccc(CN)c1` [1400 W, N-(3-(aminomethyl)benzyl)acetamidine]: the “tracer uptake in the lungs and blood blocked” value on iNOS [7] (blocker 5 mg/kg i.v. immediately before [18F]compound 14, 1 h post injection) was 32%.

Consider `C/C=C/c1cc(C)cc(N)n1` [DZ(III)-73], for which the IC50 at iNOS [1] (setting [8]) turned out to be 282 ± 48.6 nM.

Consider `Cc1ccnc(N)c1` [2-amino-4-methylpyridine], for which the “blocking of increased uptake of [18F]compound 14” value at iNOS [7] (blocker 10 mg/kg intravenously) is “failed to block”.

Consider `Cc1cc(N)nc(CCCF)c1` [Compound 52], for which the IC50 at iNOS [1] (setting [8]) is 57.6 ± 5.3 nM; on iNOS [1] (setting [10]) it was under 190 nM; at iNOS [1] (setting [11]), 57.6 ± 5.3 nM; against nNOS, 514 ± 83.3 nM; against eNOS, 1430 ± 158 nM.
